Target: T1, GLP-1R (Homo sapiens, UniProt P43220)
T1 construct: host or cells: CRE-bla CHO-K1
Assay: EC20 GLP-1(9-36) PAM cAMP assay: dose response of compound in the presence of fixed concentration of GLP-1(9-36)
Format: cell-based
Settings: GLP-1R CRE-bla CHO-K1 cells, compound dose response in presence of fixed concentration of GLP-1(9-36)
Protocol: EC20 GLP-1(9-36) PAM cAMP Assay: Dose Response of Compound in the Presence of Fixed Concentration of GLP-1 (9-36).
GLP-1R CRE-bla CHO-K1 cells cultured in growth medium (DMEM-High glucose, 10% dialyzed FBS, 0.1 mM NEAA, 25 mM Hepes, 100 U/mL penicillin/100 μg/mL streptomycin, 5 μg/mL Blasticidin, 600 μg/mL Hygromycin) were tryspsinized and plated in suspension into 384 well white flat bottom plates at 5000 cells/well in 12 μL assay buffer (Hanks Balanced Salt solution, 10 mM Hepes, 0.1% BSA, pH 7.4). A 5× compound dose response curve (12-point) was generated in assay buffer containing 1.5 mM IBMX, 12.5% DMSO. GLP-1(9-36) was diluted to 4.2 μM in assay buffer containing 1.5 mM IBMX and 12.5% DMSO. The 5× compound dose response was added (3 μL), followed by 0.5 μL of GLP-1(9-36) and cells were incubated for 30 min at 37° C. Direct detection of cAMP was carried out using DiscoveRx HitHunter cAMP kit according to manufacturer's instructions and luminescence was read using a SpectraMax M5 plate reader. Luminescence was converted to total cAMP using a cAMP standard curve and data was analyzed by non-linear regression to determine the EC50 and Emax.
GLP-1(7-36): […]-NH2. GLP-1(9-36): […]-NH2. GLP-1(7-36) was purchased from GenScript. GLP-1(9-36) was purchased from Biopeptide Co., Inc.

T1 sequence (P43220 24-463): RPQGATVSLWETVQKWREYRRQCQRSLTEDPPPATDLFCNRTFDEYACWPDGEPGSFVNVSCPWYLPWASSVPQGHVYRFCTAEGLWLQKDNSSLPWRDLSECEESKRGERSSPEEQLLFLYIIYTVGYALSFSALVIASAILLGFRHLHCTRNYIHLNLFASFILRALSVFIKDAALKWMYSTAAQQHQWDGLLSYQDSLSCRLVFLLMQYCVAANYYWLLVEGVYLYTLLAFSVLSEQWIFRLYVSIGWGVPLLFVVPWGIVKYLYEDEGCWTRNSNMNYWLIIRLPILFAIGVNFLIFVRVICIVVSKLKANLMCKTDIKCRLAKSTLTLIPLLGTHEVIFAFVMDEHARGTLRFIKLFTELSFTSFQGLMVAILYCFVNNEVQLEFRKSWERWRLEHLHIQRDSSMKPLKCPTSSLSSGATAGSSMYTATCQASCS
T1 sequence (P01275 100-127 partner limits assumed): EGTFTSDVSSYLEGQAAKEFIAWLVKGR

Row | SMILES | EC50 [µM]
1 | CCCCCCCOc1ccc(-c2cnc(-c3ccc(C[C@H](NC(=O)c4cccc(C)c4)C(=O)O)cc3)nc2)cc1 [Compound 111] | 0.8 to 2.5
2 | CCCCCCCOc1ccc(-c2cnc(-c3ccc(C[C@H](NC(=O)c4ccc(CC(C)(C)C)cc4)C(=O)O)cc3)nc2)cc1 [Compound 112] | 0.8 to 2.5
3 | CCCCCCCOc1ccc(-c2cnc(-c3ccc(C[C@H](NC(=O)c4ccc(C(C)=O)cc4)C(=O)O)cc3)nc2)cc1 [Compound 113] | 0.8 to 2.5
4 | CCCCCCCOc1ccc(-c2cnc(-c3ccc(C[C@H](NC(=O)c4ccc(O)cc4)C(=O)O)cc3)nc2)cc1 [Compound 114, (S)-3-(4-(5-(4-(heptyloxy)phenyl)pyrimidin-2-yl)phenyl)-2-(4-hydroxybenzamido)propanoic acid] | 0.8 to 2.5
5 | CCCCCCCOc1ccc(-c2cnc(-c3ccc(C[C@H](NC(=O)c4ccc(C(N)=O)cc4)C(=O)O)cc3)nc2)cc1 [Compound 115] | 0.8 to 2.5
6 | CCCCCCCOc1ccc(-c2cnc(-c3ccc(C[C@H](NC(=O)c4c(Cl)ccc(F)c4Cl)C(=O)O)cc3)nc2)cc1 [Compound 116] | 0.8 to 2.5
7 | CCCCCCCOc1ccc(-c2cnc(-c3ccc(C[C@H](NC(=O)c4ccc(C)c(C)c4)C(=O)O)cc3)nc2)cc1 [Compound 117] | < 0.8
8 | CCCCCCCOc1ccc(-c2cnc(-c3ccc(C[C@H](NC(=O)c4ccc(OC)c(C)c4)C(=O)O)cc3)nc2)cc1 [Compound 118] | < 0.8
9 | CCCCCCCOc1ccc(-c2cnc(-c3ccc(C[C@H](NC(=O)c4ccccc4C)C(=O)O)cc3)nc2)cc1 [Compound 119] | < 0.8
10 | CCCCCCCOc1ccc(-c2cnc(-c3ccc(C[C@H](NC(=O)c4ccc(OC(F)(F)F)cc4)C(=O)O)cc3)nc2)cc1 [Compound 120] | 0.8 to 2.5
11 | CCCCCCCOc1ccc(-c2cnc(-c3ccc(C[C@H](NC(=O)c4ccc(OCC(C)C)cc4)C(=O)O)cc3)nc2)cc1 [Compound 121] | 0.8 to 2.5
12 | CCCCCCCOc1ccc(-c2cnc(-c3ccc(C[C@H](NC(=O)c4ccc(S(=O)(=O)C(C)C)cc4)C(=O)O)cc3)nc2)cc1 [Compound 122] | 0.8 to 2.5
13 | CCCCCCCOc1ccc(-c2cnc(-c3ccc(C[C@H](NC(=O)c4ccc(S(C)(=O)=O)cc4Cl)C(=O)O)cc3)nc2)cc1 [Compound 123] | 0.8 to 2.5
14 | CCCCCCCOc1ccc(-c2cnc(-c3ccc(C[C@H](NC(=O)c4ccc(NCCCC)cc4)C(=O)O)cc3)nc2)cc1 [Compound 124] | 0.8 to 2.5
15 | CCCCCCCOc1ccc(-c2cnc(-c3ccc(C[C@H](NC(=O)c4ccc(OC(C)(C)C)cc4)C(=O)O)cc3)nc2)cc1 [Compound 125] | 0.8 to 2.5
16 | CCCCCCCOc1ccc(-c2cnc(-c3ccc(C[C@H](NC(=O)c4ccc(CO)cc4)C(=O)O)cc3)nc2)cc1 [Compound 126] | 0.8 to 2.5
17 | CCCCCCCOc1ccc(-c2cnc(-c3ccc(C[C@H](NC(=O)c4ccc(S(=O)(=O)CC)cc4)C(=O)O)cc3)nc2)cc1 [Compound 127] | 0.8 to 2.5
18 | CCCCCCCOc1ccc(-c2cnc(-c3ccc(C[C@H](NC(=O)c4ccc(C(=O)N(C)C)cc4)C(=O)O)cc3)nc2)cc1 [Compound 128] | 0.8 to 2.5
19 | CCCCCCCOc1ccc(-c2cnc(-c3ccc(C[C@H](NC(=O)c4ccc(OCCCC)cc4)C(=O)O)cc3)nc2)cc1 [Compound 129] | 0.8 to 2.5
20 | CCCCCCCOc1ccc(-c2cnc(-c3ccc(C[C@H](NC(=O)c4cc(C(C)C)no4)C(=O)O)cc3)nc2)cc1 [Compound 130] | < 0.8
21 | CCCCCCCOc1ccc(-c2cnc(-c3ccc(C[C@H](NC(=O)c4cnc(C(C)C)nc4)C(=O)O)cc3)nc2)cc1 [Compound 131] | 0.8 to 2.5
22 | CCCCCCCOc1ccc(-c2cnc(-c3ccc(C[C@H](NC(=O)c4coc(C(C)C)n4)C(=O)O)cc3)nc2)cc1 [Compound 132] | 0.8 to 2.5
23 | CCCCCCCOc1ccc(-c2cnc(-c3ccc(C[C@H](NC(=O)c4ccc(C(C)(C)C)o4)C(=O)O)cc3)nc2)cc1 [Compound 133] | 0.8 to 2.5

Row | SMILES | EC50 [µM]
24 | CCCCCCCOc1ccc(-c2cnc(-c3ccc(C[C@H](NC(=O)c4ccc(CN(C)C)cc4)C(=O)O)cc3)nc2)cc1 [Compound 134] | 0.8 to 2.5
25 | CCCCCCCOc1ccc(-c2cnc(-c3ccc(C[C@H](NC(=O)c4cc(C(C)C)on4)C(=O)O)cc3)nc2)cc1 [Compound 135] | 0.8 to 2.5
26 | CCCCCCCOc1ccc(-c2cnc(-c3ccc(C[C@H](NC(=O)c4cc(C(C)(C)C)n[nH]4)C(=O)O)cc3)nc2)cc1 [Compound 136] | 5 to 10
27 | CCCCCCCOc1ccc(-c2cnc(-c3ccc(C[C@H](NC(=O)c4ccc(CC)s4)C(=O)O)cc3)nc2)cc1 [Compound 137] | 0.8 to 2.5
28 | CCCCCCCOc1ccc(-c2cnc(-c3ccc(C[C@H](NC(=O)c4ccc(CC)o4)C(=O)O)cc3)nc2)cc1 [Compound 138] | 0.8 to 2.5
29 | CCCCCCCOc1ccc(-c2cnc(-c3ccc(C[C@H](NC(=O)c4cnn(C(C)C)c4)C(=O)O)cc3)nc2)cc1 [Compound 139] | 0.8 to 2.5
30 | CCCCCCCOc1ccc(-c2cnc(-c3ccc(C[C@H](NC(=O)c4ccc(C(F)(F)F)s4)C(=O)O)cc3)nc2)cc1 [Compound 140] | 2.5 to 5
31 | CCCCCCCOc1ccc(-c2cnc(-c3ccc(C[C@H](NC(=O)c4nnc(C(C)(C)C)s4)C(=O)O)cc3)nc2)cc1 [Compound 141] | 0.8 to 2.5
32 | CCCCCCCOc1ccc(-c2cnc(-c3ccc(C[C@H](NC(=O)c4ncc(C(C)(C)C)s4)C(=O)O)cc3)nc2)cc1 [Compound 142] | < 0.8
33 | CCCCCCCOc1ccc(-c2cnc(-c3ccc(C[C@H](NC(=O)c4cnn(C(C)(C)C)c4)C(=O)O)cc3)nc2)cc1 [Compound 143] | < 0.8
34 | CCCCCCCOc1ccc(-c2cnc(-c3ccc(C[C@H](NC(=O)c4ccn(C(C)C)n4)C(=O)O)cc3)nc2)cc1 [Compound 144] | 0.8 to 2.5
35 | CCCCCCCOc1ccc(-c2cnc(-c3ccc(C[C@H](NC(=O)c4cc(C)c(CC)s4)C(=O)O)cc3)nc2)cc1 [Compound 145] | 0.8 to 2.5
36 | CCCCCCCOc1ccc(-c2cnc(-c3ccc(C[C@H](NC(=O)c4csc(C(C)C)c4)C(=O)O)cc3)nc2)cc1 [Compound 146] | 2.5 to 5
37 | CCCCCCCOc1ccc(-c2cnc(-c3ccc(C[C@H](NC(=O)c4ccc(CCC)s4)C(=O)O)cc3)nc2)cc1 [Compound 147] | 2.5 to 5
38 | CCCCCCCOc1ccc(-c2cnc(-c3ccc(C[C@H](NC(=O)c4cnc(C(C)C)s4)C(=O)O)cc3)nc2)cc1 [Compound 148] | 0.8 to 2.5
39 | CCCCCCCOc1ccc(-c2cnc(-c3ccc(C[C@H](NC(=O)c4cc5c(s4)CCCC5)C(=O)O)cc3)nc2)cc1 [Compound 149] | 0.8 to 2.5
40 | CCCCCCCOc1ccc(-c2cnc(-c3ccc(C[C@H](NC(=O)c4cc5c(s4)CCC5)C(=O)O)cc3)nc2)cc1 [Compound 150] | 0.8 to 2.5
41 | CCCCCCCOc1ccc(-c2cnc(-c3ccc(C[C@H](NC(=O)c4cc5c(s4)CCC(C)C5)C(=O)O)cc3)nc2)cc1 (stereo partly drawn) [Compound 151] | 0.8 to 2.5
42 | CCCCCCCOc1ccc(-c2cnc(-c3ccc(C[C@H](NC(=O)c4ccc(C(C)C)s4)C(=O)O)cc3)nc2)cc1 [Compound 152] | 0.8 to 2.5
43 | CCCCCCCOc1ccc(-c2cnc(-c3ccc(C[C@H](NC(=O)c4ccc(CC(C)C)s4)C(=O)O)cc3)nc2)cc1 [Compound 153] | 0.8 to 2.5
44 | CCCCCCCOc1ccc(-c2cnc(-c3ccc(C[C@H](NC(=O)c4ccc(C(C)=O)s4)C(=O)O)cc3)nc2)cc1 [Compound 154] | < 0.8
45 | CCCCCCCOc1ccc(-c2cnc(-c3ccc(C[C@H](NC(=O)Cc4cc5ccccc5s4)C(=O)O)cc3)nc2)cc1 [Compound 155] | 0.8 to 2.5
